From the Kinase Knowledgebase extract (Sharma et al. 2016)

Experiments:
PIK3CA (human) [1] = target: PIK3CA (human) (UniProt P42336); assay: Enzyme Assay
PIK3CD (Human) [2] = target: PIK3CD (Human) (UniProt O00329); assay: Enzyme Assay
PIK3CG (human) [3] = target: PIK3CG (human) (UniProt P48736); assay: Enzyme Assay
PIK3CA (human) [4] = target: PIK3CA (human) (UniProt P42336); assay: Cell-Based Assay; conditions: rat-1
PIK3CD (Human) [5] = target: PIK3CD (Human) (UniProt O00329); assay: Cell-Based Assay; conditions: rat-1
PIK3CG (human) [6] = target: PIK3CG (human) (UniProt P48736); assay: Cell-Based Assay; conditions: u937

Sequence of PIK3CA (human) (P42336 whole entry, looked up): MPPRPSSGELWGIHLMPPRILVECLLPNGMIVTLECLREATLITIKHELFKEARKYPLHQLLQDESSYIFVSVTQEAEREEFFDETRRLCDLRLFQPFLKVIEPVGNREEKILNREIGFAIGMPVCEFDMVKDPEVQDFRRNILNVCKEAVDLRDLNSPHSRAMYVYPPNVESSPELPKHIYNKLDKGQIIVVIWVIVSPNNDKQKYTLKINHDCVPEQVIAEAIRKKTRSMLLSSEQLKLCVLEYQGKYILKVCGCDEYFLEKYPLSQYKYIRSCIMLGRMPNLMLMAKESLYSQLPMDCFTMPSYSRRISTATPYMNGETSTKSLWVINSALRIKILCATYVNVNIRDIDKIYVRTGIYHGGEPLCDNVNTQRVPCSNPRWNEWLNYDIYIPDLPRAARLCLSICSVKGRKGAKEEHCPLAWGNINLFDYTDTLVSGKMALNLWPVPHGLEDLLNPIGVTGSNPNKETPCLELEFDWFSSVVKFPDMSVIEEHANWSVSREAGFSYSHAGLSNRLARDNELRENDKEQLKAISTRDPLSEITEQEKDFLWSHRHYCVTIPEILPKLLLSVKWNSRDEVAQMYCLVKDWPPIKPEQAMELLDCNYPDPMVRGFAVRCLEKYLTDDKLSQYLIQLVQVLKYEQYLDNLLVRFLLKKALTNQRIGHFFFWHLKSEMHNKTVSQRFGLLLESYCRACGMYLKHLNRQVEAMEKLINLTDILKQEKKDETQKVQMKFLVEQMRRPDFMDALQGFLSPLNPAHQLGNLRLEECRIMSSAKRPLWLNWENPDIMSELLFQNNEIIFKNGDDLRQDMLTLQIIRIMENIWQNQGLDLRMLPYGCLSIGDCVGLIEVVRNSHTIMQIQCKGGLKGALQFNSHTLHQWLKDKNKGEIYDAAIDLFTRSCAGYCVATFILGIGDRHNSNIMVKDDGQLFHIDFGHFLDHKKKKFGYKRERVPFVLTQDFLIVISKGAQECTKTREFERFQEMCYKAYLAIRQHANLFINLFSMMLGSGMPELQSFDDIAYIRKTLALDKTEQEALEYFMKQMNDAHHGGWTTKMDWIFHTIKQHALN
Sequence of PIK3CG (human) (P48736 whole entry, looked up): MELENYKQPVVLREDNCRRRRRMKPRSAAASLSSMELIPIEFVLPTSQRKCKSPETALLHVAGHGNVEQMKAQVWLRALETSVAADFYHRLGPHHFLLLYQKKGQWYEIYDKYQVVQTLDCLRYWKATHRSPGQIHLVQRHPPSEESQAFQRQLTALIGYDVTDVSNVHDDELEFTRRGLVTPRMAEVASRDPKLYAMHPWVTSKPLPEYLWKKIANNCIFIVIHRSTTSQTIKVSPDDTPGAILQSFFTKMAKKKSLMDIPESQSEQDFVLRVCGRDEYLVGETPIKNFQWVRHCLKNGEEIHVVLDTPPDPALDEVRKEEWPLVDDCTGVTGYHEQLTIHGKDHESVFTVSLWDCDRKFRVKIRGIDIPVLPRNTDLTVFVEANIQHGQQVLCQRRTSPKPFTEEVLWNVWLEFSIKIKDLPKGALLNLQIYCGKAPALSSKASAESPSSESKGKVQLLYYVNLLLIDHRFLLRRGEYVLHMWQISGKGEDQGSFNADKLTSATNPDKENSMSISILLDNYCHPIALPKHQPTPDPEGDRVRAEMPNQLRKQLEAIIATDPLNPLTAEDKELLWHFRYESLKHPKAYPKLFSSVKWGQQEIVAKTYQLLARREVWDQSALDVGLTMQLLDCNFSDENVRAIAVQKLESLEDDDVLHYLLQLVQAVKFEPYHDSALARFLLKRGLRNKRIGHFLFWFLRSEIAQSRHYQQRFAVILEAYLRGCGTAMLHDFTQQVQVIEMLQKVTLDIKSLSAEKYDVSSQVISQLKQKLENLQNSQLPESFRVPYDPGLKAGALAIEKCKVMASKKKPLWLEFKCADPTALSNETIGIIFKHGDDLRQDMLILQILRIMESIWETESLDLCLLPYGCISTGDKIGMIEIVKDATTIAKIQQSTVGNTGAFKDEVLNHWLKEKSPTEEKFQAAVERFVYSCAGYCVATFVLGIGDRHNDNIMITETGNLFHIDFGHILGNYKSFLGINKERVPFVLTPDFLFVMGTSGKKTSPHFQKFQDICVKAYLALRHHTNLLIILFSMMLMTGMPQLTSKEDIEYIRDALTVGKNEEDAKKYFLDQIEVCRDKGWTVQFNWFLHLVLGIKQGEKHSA
Sequence of PIK3CD (Human) (O00329 whole entry, looked up): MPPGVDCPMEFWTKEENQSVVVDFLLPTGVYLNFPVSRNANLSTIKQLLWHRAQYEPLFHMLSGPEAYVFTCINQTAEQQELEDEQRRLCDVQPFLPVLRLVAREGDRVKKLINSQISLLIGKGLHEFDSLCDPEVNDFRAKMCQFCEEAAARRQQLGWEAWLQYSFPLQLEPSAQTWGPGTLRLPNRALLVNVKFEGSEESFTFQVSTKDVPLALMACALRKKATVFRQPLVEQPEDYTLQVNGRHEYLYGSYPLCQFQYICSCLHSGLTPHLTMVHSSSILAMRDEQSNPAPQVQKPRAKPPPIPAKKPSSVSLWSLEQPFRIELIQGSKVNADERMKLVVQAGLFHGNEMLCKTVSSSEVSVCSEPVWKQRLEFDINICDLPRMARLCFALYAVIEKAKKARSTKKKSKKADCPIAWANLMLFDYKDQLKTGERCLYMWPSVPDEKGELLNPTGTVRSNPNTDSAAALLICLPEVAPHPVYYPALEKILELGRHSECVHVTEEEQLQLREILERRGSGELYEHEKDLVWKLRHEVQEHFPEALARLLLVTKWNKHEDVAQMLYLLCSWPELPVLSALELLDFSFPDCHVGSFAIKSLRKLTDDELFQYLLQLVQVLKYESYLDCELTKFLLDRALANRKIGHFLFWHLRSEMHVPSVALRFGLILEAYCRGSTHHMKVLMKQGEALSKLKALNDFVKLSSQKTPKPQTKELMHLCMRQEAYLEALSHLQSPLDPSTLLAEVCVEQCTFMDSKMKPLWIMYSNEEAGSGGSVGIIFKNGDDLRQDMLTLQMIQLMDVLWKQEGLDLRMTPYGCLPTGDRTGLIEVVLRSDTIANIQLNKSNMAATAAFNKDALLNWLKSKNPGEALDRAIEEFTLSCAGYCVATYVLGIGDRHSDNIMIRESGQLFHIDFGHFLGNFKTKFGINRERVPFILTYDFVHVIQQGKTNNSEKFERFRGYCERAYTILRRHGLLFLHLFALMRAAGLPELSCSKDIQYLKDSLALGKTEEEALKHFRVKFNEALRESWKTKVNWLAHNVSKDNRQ

Row | IC50 (PIK3CA (human) [1]) [nM] | IC50 (PIK3CD (Human) [2]) [nM] | IC50 (PIK3CG (human) [3]) [nM] | IC50 (PIK3CA (human) [4]) [nM] | IC50 (PIK3CD (Human) [5]) [nM] | IC50 (PIK3CG (human) [6]) [nM] | SMILES
1 | 2600 | 22 | 190 | > 10000 | 130 | 399 | Nc1nc(N2CCC[C@H]2c2nc3cccc(Cl)c3c(=O)n2N2CCOCC2)c2nccn2n1
2 | 2500 | 26 | 38 | 8250 | 50 | 71 | Nc1nc(N2C[C@@H](F)C[C@H]2c2nc3cccc(C(F)(F)F)c3c(=O)n2-c2cccc(F)c2)c2nc[nH]c2n1
3 | 280 | 13 | 14 | 1950 | 10 | 7 | Cc1nc(N)nc(N2C[C@@H](O)C[C@H]2c2nc3ccc(F)c(Cl)c3c(=O)n2-c2ccccc2)c1C#N
4 | 590 | 10 | 47 | 2060 | 12 | 22 | Cc1nc(N)nc(N2C[C@@H](F)C[C@H]2c2nc3cccc(C(F)(F)F)c3c(=O)n2-c2ccccc2)c1C#N
5 | 1400 | 5 | 19 | 4310 | 21 | 178 | O=c1c2c(Cl)cccc2nc([C@@H]2C[C@H](O)CN2c2ncnc3[nH]cnc23)n1-c1ccccc1
6 | 5600 | 19 | 660 | 9950 | 38 | 718 | N#Cc1c(N)ncnc1N1CCC[C@H]1c1nc2cccc(C(F)(F)F)c2c(=O)n1-c1cccc(F)c1
7 | > 10000 | 360 | 370 | > 10000 | 939 | > 10000 | CS(=O)(=O)N1CC[C@H](n2c([C@@H]3CCCN3c3ncnc4[nH]cnc34)nc3cccc(Cl)c3c2=O)C1
8 | 1100 | 13 | 75 | 4600 | 42 | 343 | Cc1nc(N)nc(N2CCC[C@H]2c2nc3cccc(S(C)(=O)=O)c3c(=O)n2-c2ccccc2)c1C#N
9 | 1430 | 3 | 110 | > 10000 | 15 | 494 | N#Cc1c(N)ncnc1N1CCC[C@H]1c1nc2cccc(O)c2c(=O)n1-c1ccccc1
10 | 2700 | 75 | 950 | 5930 | 98 | 934 | N#Cc1c(N)ncnc1N1CCC[C@H]1c1nc2cccc(C(F)(F)F)c2c(=O)n1-c1cccnc1
11 | > 10000 | 220 | 58 | > 10000 | 517 | 187 | N#Cc1c(C(F)F)nc(N)nc1N1C[C@@H](O)C[C@H]1c1nc2cccc(C(F)(F)F)c2c(=O)n1-c1ccccc1
12 | 2800 | 67 | 93 | > 10000 | 8040 | 312 | Nc1nc(N2CCC[C@H]2c2nc3cccc(C(F)(F)F)c3c(=O)n2-c2ccccc2)c2nccn2n1
13 | 3100 | 97 | 890 | 8840 | 42 | 60 | Cc1nc(N)nc(N2C[C@@H](O)C[C@H]2c2nc3cccc(C(F)(F)F)c3c(=O)n2-c2cc(F)cc(F)c2)c1C#N
14 | 9300 | 82 | 720 | > 10000 | 29 | 146 | N#Cc1c(N)ncnc1N1C[C@@H](O)C[C@H]1c1nc2cccc(C(F)(F)F)c2c(=O)n1-c1cccc(F)c1
15 | 7200 | 140 | 78 | > 10000 | 204 | 793 | CO[C@H]1C[C@@H](c2nc3cccc(Cl)c3c(=O)n2-c2ccccc2)N(c2nc(N)nn3ccnc23)C1
16 | 890 | 17 | 82 | 4440 | 37 | 164 | Cc1nc(N)nc(N2CCC[C@H]2c2nc3cccc(C(F)(F)F)c3c(=O)n2-c2cccc(F)c2)c1C#N
